According to BindingDB's records for doi:10.1016/s0960-894x(97)10151-2 (Merck, 1999):

These compounds were tested against Endothelin receptor type B (Sus scrofa) (assay: Inhibition of [125I]ET1 binding to porcine kidney inner medulla membrane Endothelin B receptor).

**Q.** With CCCOc1ccc2c(c1)c(-c1ccc(OC)cc1)c(C(=O)O)n2Cc1ccc2nsnc2c1 [1-Benzo[1,2,5]thiadiazol-5-ylmethyl-3-(4-methoxy-phenyl)-5-propoxy-1H-indole-2-carboxylic acid] as the compound, how does the IC50 read?
**A.** 1200 nM

**Q.** COc1ccc(-c2c(C(=O)O)c(=O)n(Cc3ccc4nsnc4c3)c3c2oc2ccccc23)cc1 [1-Benzo[1,2,5]thiadiazol-5-ylmethyl-4-(4-methoxy-phenyl)-2-oxo-1,2-dihydro-benzo[4,5]furo[3,2-b]pyridine-3-carboxylic acid] was tested. Which IC50 did it give?
**A.** 300 nM

**Q.** For COc1ccc(-c2c(C(=O)O)c(=O)n(Cc3ccc4c(c3)OCO4)c3c2oc2ccccc23)cc1 [1-Benzo[1,3]dioxol-5-ylmethyl-4-(4-methoxy-phenyl)-2-oxo-1,2-dihydro-benzo[4,5]furo[3,2-b]pyridine-3-carboxylic acid], which IC50 is on record?
**A.** 440 nM

**Q.** For COc1ccc(C2(O)OC(=O)C(c3ccc4nsnc4c3)=C2Cc2cc(OC)c(OC)c(OC)c2)cc1 (configuration not stated) [3-Benzo[1,2,5]thiadiazol-5-yl-5-hydroxy-5-(4-methoxy-phenyl)-4-(3,4,5-trimethoxy-benzyl)-5H-furan-2-one], which IC50 is on record?
**A.** 340 nM

**Q.** Which IC50 does the source give for CCCOc1ccc2c(c1)c(-c1ccc3c(c1)OCO3)c(C(=O)O)n2Cc1ccc2nonc2c1 [3-Benzo[1,3]dioxol-5-yl-1-benzo[1,2,5]oxadiazol-5-ylmethyl-5-propoxy-1H-indole-2-carboxylic acid] here?
**A.** 5300 nM

**Q.** How did the IC50 turn out when CCCOc1ccc2c(c1)c(-c1ccc3c(c1)OCO3)c(C(=O)O)n2Cc1ccc2c(c1)OCO2 [3-Benzo[1,3]dioxol-5-yl-1-benzo[1,3]dioxol-5-ylmethyl-5-propoxy-1H-indole-2-carboxylic acid] was run?
**A.** 1600 nM

**Q.** Which IC50 does the source give for CN(C)c1cccc2c(S(=O)(=O)Nc3ccc4c(c3)OCO4)cccc12 [5-Dimethylamino-naphthalene-1-sulfonic acid benzo[1,3]dioxol-5-ylamide] here?
**A.** > 10000 nM
